Experimental data published in US8282938B2 (priority 2008, dated 2012).

Assays:
[1] = test system: HLA-A*2402-restricted cytotoxic T lymphocytes; set-up: species or system transgenic mice expressing the HLA-A*2402 molecule (A24Tg); conditions: mouse, in vivo
[2] = test system: HLA-A*0201-restricted cytotoxic T lymphocytes; set-up: species or system mice expressing the HLA-A*0201 molecule (HHD mice); conditions: mouse, in vivo

Sequence	CTL activity [1]	Specific killing [1] [%]	CTL activity [2]	Specific killing [2] [%]
CFNPMIVEL [PA_8]	low activity	10		
EWFRNVLSI [PB1_331]	low activity	7		
GMFNMLSTV [PB1_410]			high CTL activity	87
IFLARSALI [NP_257]	low activity	16		
KTTPRPLRL [PA_262]	high CTL activity	58		
LWILDRLFF [M2_40]	low activity	10		
MYQKCCTLF [PB1_688]	high CTL activity	89		
RYTKTTYWW [PB1_430]	high CTL activity	96		
SFSFGGFTF [PB2_322]	high CTL activity	38		
SLLTEVETL [M2_2]	low activity			
SYINRTGTF [PB1_482]	high CTL activity	56		
SYLIRALTL [PB1_216]	high CTL activity	22		
TYFEKVERL [PB2_117]	low activity	13		
TYQWIIRNW [PB2_549]	high CTL activity	96		
YYLEKANKI [PA_130]	high CTL activity	95		
